Data taken from US20180036231A1, “PREVENTION OF AND RECOVERY FROM DRUG-INDUCED OTOTOXICITY” (Otonomy, Inc., priority 2011, published 2018).
Where two headings read alike, the source gives them in different places.

Experiments:
[1] = female, guinea pig, in vivo
Experimental: (§1) Female guinea pigs (Charles River) weighing 200-300 g, of approximately 6-8 weeks of age are used (N=4 per group). Prior to any procedure, animals are anesthetized using a combination of xylazine (10 mg/kg), ketamine (40 mg/kg) and acepromazine (0.75 mg/kg) for up to an hour via the intramuscular route. If needed, an intraoperative booster is administered intraperitoneally representing one-tenth of the original dose. Intratympanic injection—Each animal is positioned so that the head is tilted at an angle to favor injection towards the round window niche. Briefly, under visualization with an operating microscope, 50 μl of formulations comprising 0.2-6% dexamethasone and varying concentrations of P407 are administered to the animals. […] During the procedure and until recovery, animals are placed on a temperature controlled (40° C.) heating pad until consciousness is regained at which time they are returned to the vivarium.
(§2) The skin behind the ear of anesthetized guinea pigs is shaved and disinfected with povidone-iodine. An incision is then made behind the ear, and muscles are carefully retracted from over the bulla. A hole is drilled though the bulla using a dental burr so that the middle ear is exposed and accessible. The cochlea and the round window membrane are visualized under a stereo surgical microscope. A unique microhole is hand drilled through the bony shell of the cochlea (active capsule) adjacent to the round window. Perilymph (5 μl) is then collected using a microcapillary inserted into the cochlear scala tympani.

[2] = test system: Cisplatin induced hearing loss; assay: Cisplatin induced ototoxicity model, intratympanic injection, hearing by ABR; assay type: in vivo, guinea pig
Experimental: Intratympanic injection of a formulation of Example 1 is administered the day before cisplatin administration. The lower right quadrant of the abdomen is shaved 1 inch and swabbed with alcohol. A tiny (2-3 mm) incision is made on the abdomen and a 21 G blunt needle is used to penetrate the abdominal wall and into the intraperitoneal cavity. The needle will be connected to an infusion bag containing cisplatin for a slow infusion of 15-30 minutes in the range of 5-15 mg/kg. The incision site is closed using sterile staples. Animals will be placed on a warming pad during the infusion and while recovering. In addition, animals receive twice daily IP injection of saline solution for 3 days to prevent nephrotoxicity.
The hearing of the animal is tested by recording the brainstem activity in response to a known auditory stimulus. (ABR: Auditory Brainstem Response) at various time points. This measurement is performed under general anesthesia. During the procedure the animal is placed on a heating pad (40° C.) in a sound proof booth and an earphone is fitted loosely into one ear at a time. Three subcutaneous needle electrodes are used to measure the brainstem activity. […] The recording then takes place, where the audio stimulus is applied at different frequencies and hearing thresholds, and the brainstem activity recorded.

[3] = Inner ear (perilymph) pharmacokinetics after intratympanic administration in guinea pigs; settings: for methylprednisolone peak level in the perilymph: intratympanic administration of hydrogel
Experimental: as §1, §2

[4] = In vitro dissolution / mean dissolution time (MDT) of active agent from formulation; assay type: physicochemical
Experimental: The release profile of compositions suitable for methods described herein is optionally determined using dissolution techniques. In one embodiment, dissolution is performed at 37° C. in snapwells (6.5 mm diameter polycarbonate membrane with a pore size of 0.4 μm), 0.2 mL of a gel formulation described herein (e.g., a gel formulation of Example 1) is placed into snapwell and left to harden, then 0.5 mL buffer is placed into reservoir and shaken using a Labline orbit shaker at 70 rpm. Samples are taken every hour (0.1 mL withdrawn and replace with warm buffer). Samples are analyzed for active agent concentration by UV at 245 nm against an external calibration standard curve. Pluronic concentration is analyzed at 624 nm using the cobalt thiocyanate method. Relative rank-order of mean dissolution time (MDT) as a function of % P407 is determined. […] A non-linear relationship indicates release of active agent via a combination of diffusion and/or polymer gel degradation.
The MDT is inversely proportional to the release rate of an active agent from a composition described herein. Experimentally, the released active agent is optionally fitted to the Korsmeyer-Peppas equation: […]
where Q is the amount of active agent released at time t, Qα is the overall released amount of active agent, k is a release constant of the nth order, n is a dimensionless number related to the dissolution mechanism and b is the axis intercept, characterizing the initial burst release mechanism wherein n=1 characterizes an erosion controlled mechanism. The mean dissolution time (MDT) is the sum of different periods of time the drug molecules stay in the matrix before release, divided by the total number of molecules and is optionally calculated by: […]
In alternate embodiments, samples are analyzed using the method described by Li Xin-Yu paper [Acta Pharmaceutica Sinica 2008, 43(2):[…]] and Rank-order of mean dissolution time (MDT) as a function of % P407 is determined.

[5] = test system: noise induced hearing loss; assay: Acoustic trauma / noise induced hearing loss model, intratympanic injection, hearing by ABR; assay type: in vivo, guinea pig; settings: thermoreversible gel formulation, prophylactic intratympanic administration
Experimental: The hearing of the animal is tested by recording the brainstem activity in response to a known auditory stimulus. (ABR: Auditory Brainstem Response) at various time points. This measurement is performed under general anesthesia. During the procedure the animal is placed on a heating pad (40° C.) in a sound proof booth and an earphone is fitted loosely into one ear at a time. Three subcutaneous needle electrodes are used to measure the brainstem activity. One is placed behind the ear with the earphone, one on the vertex of the skull and one in the hindleg. The recording then takes place, where the audio stimulus is applied at different frequencies and hearing thresholds, and the brainstem activity recorded.
Following the procedure described in Example 9, a dexamethasone formulation is administered to guinea pigs prior to exposure to acoustic trauma. Hearing is evaluated as described in Example 8 above.
Following the procedure described in Example 9, a SP600125 formulation is administered to guinea pigs prior to exposure to acoustic trauma. Hearing is evaluated as described in Example 9 above.

[6] = intratympanic administration in hydrogel vehicle

CC(=O)OCC(=O)[C@@]1(O)[C@H](C)C[C@H]2[C@@H]3CCC4=CC(=O)C=C[C@]4(C)[C@@]3(F)[C@@H](O)C[C@@]21C [DA, Dexamethasone acetate]
inner ear exposure, dexamethasone in perilymph (AUC) [1]: 84000 to 359000 ng·h/mL
residence time in inner ear compartment (MRT) [1]: 17 to 82 h

C[C@@H]1C[C@H]2[C@@H]3CCC4=CC(=O)C=C[C@]4(C)[C@@]3(F)[C@@H](O)C[C@]2(C)[C@@]1(O)C(=O)COP(=O)([O-])[O-].[Na+].[Na+] [DSP]
auditory function versus saline control, acute cisplatin ototoxicity ([2]; 2.0% solution, single bilateral intratympanic injection one day before cisplatin 12 mg/kg, Day 7 post cisplatin): No significant differences
inner ear exposure, dexamethasone in perilymph (AUC) [3, 6]: 28000 to 57000 ng·h/mL
residence time in inner ear compartment (MRT) [3, 6]: 4 to 7 h
MDT (mean dissolution time) ([4]; 17% Poloxamer 407 formulation): about 3 h
MDT (mean dissolution time) ([4]; aqueous solution): 0.3 h

C[C@H]1C[C@@H]2[C@H]([C@@H](O)C[C@@]3(C)[C@H]2CC[C@]3(O)C(=O)CO)[C@@]2(C)C=CC(=O)C=C12 [MP, methylprednisolone]
methylprednisolone peak level in the perilymph [3]: 19.2 µg/mL
decline of perilymph levels after peak (in words) ([3]; intratympanic hydrogel): decreased slowly over 10 days

C[C@H]1C[C@@H]2[C@H]([C@@H](O)C[C@@]3(C)[C@H]2CC[C@]3(O)C(=O)COC(=O)CCC(=O)[O-])[C@@]2(C)C=CC(=O)C=C12.[Na+] [MPS]
methylprednisolone peak level in the perilymph [3]: 6.5 µg/mL
perilymph level as fraction of the peak levels ([3]; within 3 days after intratympanic hydrogel): 0.8-1.0%
MDT (mean dissolution time) ([4]; 17% Poloxamer 407 formulation): about 3 h

CC#C[C@]1(O)CC[C@H]2[C@@H]3CCC4=CC(=O)CCC4=C3[C@@H](c3ccc(N(C)C)cc3)C[C@@]21C [Mifepristone]
effect on dexamethasone gel protection against acute cisplatin ototoxicity ([2]; 6.0% mifepristone + 6.0% dexamethasone gel, intratympanic, one day before cisplatin 12 mg/kg): antagonizes dexamethasone gel protection

O=C1c2ccccc2-c2n[nH]c3cccc1c23 [SP600125, anthra[1,9-cd]pyrazol-6(2H)-one]
protection against acoustic trauma / prevention of hearing loss [5]: preventing hearing loss due to acoustic trauma

IGF-1: insulin-like growth factor, trophic agent/growth factor (PeproTech)
protection against acoustic trauma / prevention of hearing loss [5]: protects against acoustic trauma
